Measurements taken from PubChem BioAssay (NCI).
“And” between values parts separate entries of the source, which are not always exact repeats. Identical values can stand only once.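 48-hour exposure; five concentrations; linearly interpolated endpoints. Here, GI50 denotes the concentration required for 50% inhibition of growth. TGI: concentration producing complete growth inhibition.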

Legend:
Assay in all cases: NCI-60 cell line screen, 48 h
CCRF-CEM leukemia = test system: CCRF-CEM leukemia
EKVX NSCLC = test system: EKVX NSCLC
K-562 leukemia = test system: K-562 leukemia
RPMI-8226 leukemia = test system: RPMI-8226 leukemia
SNB-75 CNS = test system: SNB-75 CNS
MALME-3M melanoma = test system: MALME-3M melanoma
NCI/ADR-RES ovarian = test system: NCI/ADR-RES ovarian
PC-3 prostate = test system: PC-3 prostate
T-47D breast = test system: T-47D breast
MDA-MB-231 breast = test system: MDA-MB-231 breast

| Structure (SMILES) | TGI (CCRF-CEM leukemia) | TGI (EKVX NSCLC) | TGI (K-562 leukemia) | TGI (RPMI-8226 leukemia) | TGI (SNB-75 CNS) | TGI (MALME-3M melanoma) | GI50 (CCRF-CEM leukemia) | GI50 (EKVX NSCLC) | GI50 (K-562 leukemia) | TGI (NCI/ADR-RES ovarian) | TGI (PC-3 prostate) | GI50 (RPMI-8226 leukemia) | GI50 (SNB-75 CNS) | TGI (T-47D breast) | GI50 (MDA-MB-231 breast) | TGI (MDA-MB-231 breast) | GI50 (PC-3 prostate) | GI50 (T-47D breast) | GI50 (MALME-3M melanoma) | GI50 (NCI/ADR-RES ovarian) |
| --- | --- | --- | --- | --- | --- | --- | --- | --- | --- | --- | --- | --- | --- | --- | --- | --- | --- | --- | --- | --- |
| CC1(C)CCC(Sc2ccccc2)O1 (stereo not drawn) | > 100 µM | > 100 µM | > 100 µM | > 100 µM | > 100 µM |  |  |  |  |  |  |  |  |  |  |  |  |  |  |  |
| Cc1ccc(NC(=O)CCCC(=O)CC(=O)c2ccc(Br)cc2)cc1 | > 100 µM | > 100 µM | > 100 µM | > 100 µM | > 100 µM | > 100 µM |  |  |  |  |  |  |  |  |  |  |  |  |  |  |
| CC(=O)OCC1OC(n2c(=S)n(-c3ccc([N+](=O)[O-])cc3)c(=O)c3ccccc32)C(OC(C)=O)C(OC(C)=O)C1OC(C)=O (stereo not drawn) | 96.9 µM and > 100 µM | > 70 µM and 57.4 µM | > 100 µM | 17.8 µM and > 100 µM | 51 µM and 41.2 µM | 38.4 µM | 5.11 µM and 15.4 µM | 18.9 µM and 28.2 µM | 10.7 µM and 27.2 µM | 95.2 µM | 39.9 µM | 4.41 µM and 19.9 µM | 7.28 µM and 19 µM | 74.3 µM |  |  |  |  |  |  |
| COc1cccc(/C=C/C(=O)c2ccc3cc(OC)ccc3c2)c1 |  | 40.8 µM | > 50 µM | 34.8 µM | 14.6 µM |  |  | 13 µM | 9.13 µM |  | > 50 µM | 10.8 µM | 0.066 µM | 25.7 µM | 8.95 µM | 22.9 µM | 18.3 µM | 10.7 µM |  |  |
| COc1ccc2c(c1)OC(N)=C(C#N)C2c1cc(OC)c(OC)c(OC)c1 (stereo not drawn) | > 100 µM | > 100 µM | > 100 µM | > 100 µM | 45.9 µM | > 100 µM | 0.0337 µM | 0.251 µM | 0.0338 µM | 0.0449 µM | > 100 µM | 0.0389 µM | 0.0394 µM | > 100 µM |  |  | 0.0498 µM | > 100 µM | 80.5 µM | 0.0199 µM |
| COC(=O)CCSC(=O)Nc1ccc(N=Nc2ccccc2)cc1 | > 100 µM | > 100 µM | > 100 µM | > 100 µM | > 100 µM | > 100 µM |  |  |  |  |  |  |  |  |  |  |  |  |  |  |
| N#CCn1c(=O)c(Oc2ccc(F)cc2F)cc2cnc(NC3CCOCC3)nc21 | > 25 µM |  | > 25 µM | > 25 µM | > 25 µM | > 25 µM | > 25 µM |  | > 25 µM | > 25 µM | > 25 µM | > 25 µM | > 25 µM | > 25 µM | > 25 µM | > 25 µM | > 25 µM | 12.3 µM | > 22.5 µM | > 25 µM |
| Cc1ccc(C(=O)CC2(O)C(=O)Nc3c(C)cc(Cl)cc32)cc1 (stereo not drawn) | > 100 µM | > 100 µM | > 100 µM | > 100 µM | > 100 µM | > 100 µM |  |  |  |  |  |  |  |  |  |  |  |  |  |  |
| Cn1c(CBr)nc2c1C(=O)c1nc(CBr)[nH]c(=O)c1C2=O | > 100 µM | > 100 µM | > 100 µM | > 100 µM |  |  |  |  |  |  |  |  |  |  |  |  |  |  |  |  |
| COc1cc[c]([Sn]([c]2ccc(OC)cc2)([c]2ccc(OC)cc2)[c]2ccc(OC)cc2)cc1 | 69.8 µM | > 100 µM | 56.1 µM | 35.1 µM | > 100 µM | 8.43 µM | 20.7 µM | 35 µM | 16.2 µM |  |  | 11.2 µM | 24 µM |  |  |  |  |  | 3.31 µM |  |
